Test systems include 786-0; ACHN; CAKI-1; CCRF-CEM; COLO 205; HCC 2998; HCT-116; HOP-62; K562; M14; MCF7; NCI-H226; OVCAR-3; OVCAR-4; SF-268; SF-295; SK-OV-3; SNB-19; UACC-62; UO-31.
Common to all, as to test: inhibition of tumour cell growth, NCI panel, 48 h

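How tested: cells in 96-well plates exposed to compound for 48 hours at five concentrations. At the GI50, growth is halved.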 Activity calls are given as the source filed them. Cut-off read from the data, not from the text of the source: active = GI50 up to about 1.1 µM and inactive = higher. Some results are limits rather than exact numbers.

For `CCN1C(=O)C(=Cc2ccc(-c3ccccc3)cc2)C(=O)N(CC)C1=S`, the GI50 was > 100 µM (inactive) in the experiment on 786-0; > 100 µM (inactive) in the experiment on ACHN; > 100 µM (inactive) in the experiment on CAKI-1; 48.9 µM (inactive) with CCRF-CEM; > 100 µM (inactive) in the experiment with COLO 205; > 100 µM (inactive) in the experiment with HCC 2998. Besides, the GI50 is 97.3 µM (inactive) in the experiment on HCT-116; > 100 µM (inactive) with HOP-62; 38.5 µM (inactive) in the experiment with K562; > 100 µM (inactive) with M14; > 100 µM (inactive) with MCF7; > 100 µM (inactive) in the experiment on NCI-H226. Moreover, the GI50 with OVCAR-3, in the experiment with OVCAR-4, in the experiment with SF-268, with SF-295, with SK-OV-3 and with SNB-19 was > 100 µM (inactive) in each case. Besides, the figures for the GI50 with UACC-62 and in the experiment with UO-31 were > 100 µM (inactive) and 79.4 µM (inactive), respectively.

On to `C[Si](C)(C)OC1(C#N)c2ccccc2CCCC12CCCC2` (centres undefined), for which the GI50 in the experiment on 786-0 was 54.7 µM (inactive); with ACHN it was 30.1 µM (inactive); in the experiment on CAKI-1 it was > 100 µM (inactive); in the experiment with CCRF-CEM, 19.6 µM (inactive); in the experiment on COLO 205 it was 37.1 µM (inactive); in the experiment with HCC 2998 it was 16.4 µM (inactive). Besides, the GI50 is 26.6 µM (inactive) with HCT-116; 67.9 µM (inactive) in the experiment with HOP-62; 34.7 µM (inactive) in the experiment with K562; 48.3 µM (inactive) in the experiment with M14; 30.1 µM (inactive) with MCF7; > 100 µM (inactive) in the experiment on NCI-H226. Besides, the GI50 in the experiment with OVCAR-3 was 46 µM (inactive); with OVCAR-4, 80 µM (inactive); with SF-268 it was 57.4 µM (inactive); in the experiment with SF-295, 34 µM (inactive); with SK-OV-3, > 100 µM (inactive); in the experiment with SNB-19, 44 µM (inactive). Further, the GI50 with UACC-62 was 80.2 µM (inactive); in the experiment with UO-31 it was 99.5 µM (inactive).

For `COC(=O)[C@@H](NC(=O)[C@H](N)Cc1ccc(N(CCCl)CCCl)cc1)C(C)C`, the GI50 in the experiment with 786-0 was 8.65 µM (inactive); in the experiment on ACHN it was 3.56 µM (inactive); in the experiment on CAKI-1, 0.481 µM (active); in the experiment on CCRF-CEM, 0.435 µM (active); with COLO 205, 16.9 µM (inactive); in the experiment with HCC 2998 it was 5.55 µM (inactive). For the same compound, the GI50 in the experiment on HCT-116 is 15 µM (inactive); in the experiment with HOP-62, 19.9 µM (inactive); with K562, 12.9 µM (inactive); in the experiment with M14, 8.17 µM (inactive); in the experiment on MCF7, 12.5 µM (inactive); in the experiment with NCI-H226, 18.7 µM (inactive). Moreover, the GI50 in the experiment with OVCAR-3 was 6.38 µM (inactive); in the experiment with OVCAR-4 it was 13.1 µM (inactive); in the experiment on SF-268, 10.6 µM (inactive); with SF-295 it was 18.7 µM (inactive); with SK-OV-3 it was 32.7 µM (inactive); in the experiment on SNB-19, > 54.1 µM (inactive). Moreover, the GI50 with UACC-62 is 2.39 µM (inactive); with UO-31, 12 µM (inactive).

Consider `COc1cccc(NC(=O)CC(=O)n2nc(-c3ccccc3)c(/N=N/c3ccc(Cl)cc3)c2-c2ccccc2)c1`, for which the GI50 in the experiment on 786-0 is 14.4 µM (inactive); in the experiment with ACHN, 19.9 µM (inactive); in the experiment on CAKI-1, 36.6 µM (inactive); with CCRF-CEM, 6.92 µM (inactive); in the experiment with COLO 205, 23 µM (inactive); with HCC 2998, 17.2 µM (inactive). Moreover, the GI50 is 19.4 µM (inactive) with HCT-116; 15.2 µM (inactive) in the experiment with HOP-62; 12.4 µM (inactive) in the experiment with K562; 15.2 µM (inactive) in the experiment on M14; 7.57 µM (inactive) with MCF7; 20.3 µM (inactive) in the experiment with NCI-H226. Moreover, the GI50 in the experiment on OVCAR-3 was 22.1 µM (inactive); with OVCAR-4, 36.4 µM (inactive); with SF-268, 11.6 µM (inactive); in the experiment on SF-295, 12.9 µM (inactive); with SK-OV-3 it was 5.33 µM (inactive); in the experiment on SNB-19 it was 17.8 µM (inactive). For the same compound, the GI50 in the experiment on UACC-62 is 14.2 µM (inactive); in the experiment with UO-31, 10.2 µM (inactive).

As to `O=S(=O)(O)c1ccc2cccc(/N=N\c3c(O)ccc4ccccc34)c2c1`, the GI50 in the experiment with 786-0, in the experiment with ACHN, in the experiment with CAKI-1, in the experiment with CCRF-CEM, in the experiment on COLO 205 and in the experiment with HCC 2998 was > 100 µM (inactive) throughout. Besides, the GI50 with HCT-116, in the experiment with HOP-62, with K562, with M14, in the experiment with MCF7 and in the experiment with NCI-H226 was > 100 µM (inactive) in each case. Further, the GI50 in the experiment on OVCAR-3, with OVCAR-4, with SF-268, in the experiment with SF-295, with SK-OV-3 and in the experiment with SNB-19 was > 100 µM (inactive) each time. Further, the GI50 in the experiment on UACC-62 and in the experiment on UO-31 was > 100 µM (inactive) each time.

Consider `COc1ccc(/C=C2\CC3C4CC=C5C[C@@H](O)CC[C@]5(C)C4CC[C@]3(C)\C2=N\O)cc1OC` (some centres undefined), for which the GI50 in the experiment with 786-0 was 5.71 µM (inactive); in the experiment with ACHN, 3.98 µM (inactive); in the experiment with CAKI-1, 9.62 µM (inactive); in the experiment with CCRF-CEM, 18.2 µM (inactive); with COLO 205 it was 5.13 µM (inactive); with HCC 2998 it was 7.13 µM (inactive). In addition, the GI50 with HCT-116 was 5.14 µM (inactive); in the experiment on HOP-62, 18.2 µM (inactive); in the experiment with K562, 4.98 µM (inactive); in the experiment with M14, 19.6 µM (inactive); in the experiment on MCF7, 4.24 µM (inactive); in the experiment on NCI-H226, 7.28 µM (inactive). Further, the GI50 was 2.69 µM (inactive) in the experiment on OVCAR-3; 5.02 µM (inactive) in the experiment with OVCAR-4; 18.1 µM (inactive) with SF-268; 4.13 µM (inactive) with SF-295; 49.3 µM (inactive) with SK-OV-3; 70.6 µM (inactive) in the experiment with SNB-19. Also, the GI50 in the experiment with UACC-62 is 10.3 µM (inactive); with UO-31 it was 2.65 µM (inactive).

For the compound `S=C1SC(=N\c2ccccc2)/C(=N/c2ccccc2)N1c1ccccc1`, the GI50 in the experiment on CAKI-1 is > 100 µM (inactive); with CCRF-CEM, 18.1 µM (inactive); in the experiment on COLO 205, > 100 µM (inactive); with HCC 2998, > 100 µM (inactive); with HCT-116 it was 83.9 µM (inactive); in the experiment with HOP-62, 28 µM (inactive). For the same compound, the GI50 in the experiment on K562 is > 100 µM (inactive); in the experiment with M14 it was > 100 µM (inactive); in the experiment on MCF7 it was > 100 µM (inactive); in the experiment with NCI-H226, > 100 µM (inactive); in the experiment on OVCAR-3, 34.4 µM (inactive); in the experiment on OVCAR-4, 8.53 µM (inactive). Further, the GI50 with SF-295 is 34.5 µM (inactive); in the experiment with SK-OV-3 it was > 100 µM (inactive); with SNB-19, > 100 µM (inactive); in the experiment on UACC-62, 22.8 µM (inactive); in the experiment with UO-31, > 100 µM (inactive).

As to `Nc1cc2[nH]c(=O)c3cc(Cl)ccc3c2cc1Cl`, the GI50 in the experiment on 786-0 was 14.8 µM (inactive); in the experiment on ACHN, 6.59 µM (inactive); in the experiment with CAKI-1, 8.38 µM (inactive); in the experiment on CCRF-CEM it was 18.7 µM (inactive); with COLO 205, 43.9 µM (inactive); in the experiment with HCC 2998, 23.7 µM (inactive). The GI50 is 5.15 µM (inactive) with HCT-116; 16.8 µM (inactive) in the experiment on HOP-62; 23 µM (inactive) in the experiment on K562; 36.8 µM (inactive) in the experiment on M14; 0.149 µM (active) in the experiment on MCF7; 0.0649 µM (active) in the experiment with NCI-H226. Besides, the GI50 was 12.4 µM (inactive) in the experiment with OVCAR-3; 31.9 µM (inactive) in the experiment with OVCAR-4; 11.3 µM (inactive) in the experiment with SF-268; 9.12 µM (inactive) in the experiment with SF-295; 3.98 µM (inactive) in the experiment with SK-OV-3; 8.47 µM (inactive) in the experiment with SNB-19. Besides, the GI50 is 16.7 µM (inactive) in the experiment with UACC-62 and 10.2 µM (inactive) in the experiment with UO-31.

Take `N#CC(C#N)=C1C(=O)NC(N)=C1C#N`: the GI50 in the experiment on 786-0, in the experiment with ACHN, with CAKI-1, in the experiment with CCRF-CEM, in the experiment on COLO 205 and in the experiment on HCC 2998 was > 100 µM (inactive) throughout. In addition, the GI50 in the experiment on HCT-116, in the experiment on HOP-62, in the experiment with K562, in the experiment with M14, with MCF7 and in the experiment on NCI-H226 was > 100 µM (inactive) each time. In addition, the GI50 in the experiment with OVCAR-4, with SF-268, with SF-295, in the experiment on SK-OV-3, with SNB-19 and in the experiment on UACC-62 was > 100 µM (inactive) each time. For the same compound, in the experiment on UO-31, the GI50 is > 100 µM (inactive).

Regarding `CC(=O)/N=C1/N(/C=C2\C(=O)Oc3ccccc3C2=O)C(=O)/C(=C/c2ccc(OC(C)=O)cc2)N1C`, the GI50 in the experiment on 786-0, in the experiment on ACHN, in the experiment on CAKI-1, in the experiment with CCRF-CEM, in the experiment with COLO 205 and in the experiment with HCC 2998 was > 100 µM (inactive) throughout. In addition, the GI50 in the experiment with HCT-116, with HOP-62, in the experiment with K562, in the experiment with M14, in the experiment with MCF7 and with NCI-H226 was > 100 µM (inactive) in each case. For the same compound, the GI50 in the experiment on OVCAR-3 was 83.4 µM (inactive); in the experiment on OVCAR-4 it was > 100 µM (inactive); with SF-268, > 100 µM (inactive); with SF-295 it was > 100 µM (inactive); in the experiment on SK-OV-3, > 100 µM (inactive); in the experiment with UACC-62, > 100 µM (inactive).
